Results on one substance are retold here after US5792742A, “Fibrin-binding peptide fragments of fibronectin” (New York University, priority 1994, dated 1998).

Test [1] deals with fibrin. Briefly: Fibrin-SEPHAROSE affinity chromatography (binding and elution). More on the design: species or system bovine. Here is the method:
Bovine fibrinogen was cross-linked to CNBr-activated SEPHAROSE™ (5 mg/ml beads) according to the manufacturer's instructions. Coupled fibrinogen was subsequently converted to fibrin by incubation with human thrombin to a final concentration of 5 NIH units/ml and 100 K.I. (kallikrein inhibitory) units/ml of aprotinin (in 0.05M Tris-HCI buffer, pH 7.6, containing 0.1M NaCl and 0.01M EDTA) for three hours, at room temperature (Gold, et al. (1983) Biochemistry 22, 4113-4119).
1.0M NaCl in 0.05M tris buffer, pH 8.0.
The fibrin-binding activity of the proteolytically derived 25.9 kDa fragment of Fn was determined by its ability to bind to a fibrin affinity matrix. […] FBB was used to equilibrate and wash the column. Following warming of the column to 22° C., the column was washed with FBB until absorbance at 280 nm (A280) was less than 0.01, and bound protein eluted with 0.05M Tris-HCl, 0.5M NaCl, 6M urea buffer, pH 7.6.
The module (500 μg/1.0 ml) was incubated for 4 hours (while rotating) at 4° C. in the presence of 1.0 ml fibrin-SEPHAROSE™ (5 mg fibrin/ml SEPHAROSE™ beads) equilibrated in […] Tris-HCl, 0.1M NaCl buffer, pH 7.6.
The 11 KDa peptide (50 μg/0.206 ml) was radiolabeled using the IODO-BEAD method (Pierce Chemical). The peptide was added to one IODO-BEAD in the presence of 100 μCi ^125 I (17.4 Ci/mg, New England Nuclear) and incubated on ice for 10 minutes. The bead was removed and the free ^125 I removed by chromatography through a PD10 column containing SEPHADEX™ G-25 (Pharmacia). […] The radioiodinated 11 kDa fibrin-binding peptide (500 μg/1.5 ml) was combined with 1 ml of fibrin-SEPHAROSE™ (5 mg fibrin/ml beads) equilibrated with 50 mM Tris-HCl, 0.1M NaCl buffer, pH 7.6, and rotated for 4 hours, at 4° C. The mixture was poured onto a disposable column (0.6 cm×8.0) and the unbound protein washed through. The column was equilibrated to room temperature and washed with the equilibration buffer.

The conditions of test [2]: previously shown (Baron et al. 1990); cited from earlier work.
For test [3], the system named is fibrin.
Description: Since the anti-Fn detection system described for the ELISA above could not be used in Fn competition assays employing the intact Fn molecule or the 25.8 kDa proteolytic fragment, purified Fn was biotinylated using water soluble NHS-LC-Biotin (Pierce Chemm. Co.; according to the manufacturer's instructions) and binding to fibrin detected by alkaline phosphatase conjugated streptavidin (diluted 1/500 in FBBT/BSA) for 1 hour at 22° C., followed by the addition of p-nitrophenyl phosphate, as described above. To ensure that the biotinylation of the Fn had not affected its ability to bind to fibrin, fibrin-binding activity was tested by incubating increasing concentrations of biotinylated Fn (10-300 ng/0.1 ml FBB) with the fibrin-coated wells (200 ng) and detected (see FIG. 28A) using alkaline phosphatase-conjugated streptavidin and the reaction developed as described for Direct Elisa.
To compare the relative fibrin-binding affinities of the ^4 F1.^5 F1 recombinant module pair and the 25.9 kDa proteolytic fragment (^1 F1-^5 F1) with that of the native Fn molecule, these purified proteins were competed with biotinylated plasma Fn for binding to fibrin coated wells and the extent of inhibition of binding assessed by incubation with alkaline phosphatase-conjugated streptavidin. […] Biotinylated Fn (100 ng/0.1 ml FBB: 2.3 nM) was combined with increasing concentrations (0-10 μM) of either unlabeled Fn, the 25.9 kDa proteolytic fragment, or the separate ^4 F1.^5 F1, and ^10 F1 recombinant modules and incubated with the fibrin-coated microtiter wells for 1 hour at 22° C. […] Bound biotinylated Fn was quantitated as described above.
Test [4] is described as follows: Heparin affinity chromatography. Conditions: NaCl gradient in 0.05M tris buffer, pH 8.0. It is filed as binding. An excerpt: Upon warming the column to room temperature, a 25.9 kDa fragment was eluted with FBB (Peak a, FIG. 3). […] 1.0M NaCl in 0.05M tris buffer, pH 8.0. The yield of the 11 kDa fragment from the intact molecule was approximately 5% (w/w). This is the same as the theoretical yield. The extinction coefficient has been determined to be approximately 4.5, based on a comparison between A280 and protein concentration determination by Coomassie Protein Assay (Pierce Chemical Co.).

As for “25.9 kDa fragment: 25.9 kDa N-terminal proteolytic fibrin-binding fragment of fibronectin (^1 F1-^5 F1), residues 17-246 of SEQ ID NO:1”, the “% of protein applied eluted on warming the column to 22° C. (room temperature)” value with fibrin [1] (FBB buffer) is recorded as “approximately 8%”. The “% of protein applied eluted with 0.5M NaCl, 6.0M urea buffer” value in the test on fibrin [1] (after warming to 22° C.) is on record as “approximately 17%”. The “% of protein applied retained by fibrin-SEPHAROSE” value with fibrin [1] (binding at 4° C., 500 μg applied) is given as 25%. The “% of protein applied retained by fibrin-Sepharose with increasing amounts applied” value in the test on fibrin [1] (increasing amounts applied to a fixed volume of fibrin-Sepharose) is 25%. Besides, the “relative affinity for fibrin (from elution conditions)” value in the test on fibrin [1] (temperature change vs denaturing conditions (6M urea or 50% ethylene glycol) for elution) is given as “lower affinity”. Further, in test [2], the “heparin-binding activity, affinity” value was “intermediate”. Besides, the “fold higher concentration over intact Fn needed for 50% inhibition” value in the test on fibrin [3] is 7.5 fold. For the same substance, in the test on fibrin [3] (10 μM of protein (5,000 molar excess)), the “maximal inhibition of biotinylated Fn binding to fibrin” value stood at 75%. Moreover, the half-maximal inhibitory concentration (IC50) – broadly, the midpoint of a concentration-inhibition curve – in the test on fibrin [3] (read-out: IC50, 50% inhibition of binding of biotinylated Fn to fibrin, biotinylated Fn 2.3 nM, 200 ng fibrin, 1 hour 22° C.) was 150 nM. At fibrin [3] (read-out: KI estimated from IC50 (Cheng and Prussoff)), the Ki (as a rule, the equilibrium dissociation constant of an inhibitor or competing ligand from its target) is 145 nM. Besides, the “NaCl concentration at elution from heparin affinity chromatography” value in test [4] amounted to 0.25 M.
